# Laboratory results from ChEMBL document CHEMBL4680216, “Comparative analysis of the dual EGFR-DNA targeting and growth inhibitory properties of 6-mono-alkylamino- and 6,6-dialkylaminoquinazoline-based type II combi-molecules” (Eur J Med Chem, 2020).
# Calls of active or inactive are those of the source. No cut-off for these calls is given here.
# What was measured:
# [1] = biological target: T1, Epidermal growth factor receptor (Homo sapiens, UniProt P00533); test: Inhibition of EGFR phosphorylation in human NCI-H1975 cells at 1 to 10 uM preincubated for 2 hrs followed by EGF stimulation and measured after 30 mins by Western blot analysis; assay type: cell-based; settings: dose 1-10 µM, time 2.5 hrs
# A549 [2] = test: Induction of DNA damage in human A549 cells at 0.1 to 10 uM after 2 hrs by comet assay; assay type: functional, cell-based; settings: dose 0.1-10 µM
# NCI-H1975 [3] = test: Growth inhibition of human NCI-H1975 cells incubated for 5 days by SRB assay; assay type: functional, cell-based; settings: NCI-H1975, 120 h
# PC-9 = test: Growth inhibition of human PC-9 cells incubated for 5 days by SRB assay; assay type: functional, cell-based; settings: PC-9, 120 h
# A549 [4] = test: Growth inhibition of human A549 cells incubated for 5 days by SRB assay; assay type: functional, cell-based; settings: A549, 120 h
# [5] = biological target: T1, Epidermal growth factor receptor; test: Inhibition of EGFR phosphorylation in human A549 cells at 1 to 10 uM preincubated for 2 hrs followed by EGF stimulation and measured after 30 mins by Western blot analysis; assay type: cell-based; settings: dose 1-10 µM, time 2.5 hrs
# [6] = biological target: T1, Epidermal growth factor receptor; test: Inhibition of EGFR phosphorylation in human PC-9 cells at 1 to 10 uM preincubated for 2 hrs followed by EGF stimulation and measured after 30 mins by Western blot analysis; assay type: cell-based; settings: dose 1-10 µM, time 2.5 hrs
# Calf thymus DNA [7] = test: Binding affinity to calf thymus DNA assessed as adenine alkylated adduct formation at 10 mM after 5 days by LC-MS/MS analysis; assay type: nucleic-acid assay; settings: Bos taurus, time 5.0 day
# [8] = Toxicity in po dosed CD-1 mouse assessed as maximum tolerated dose; assay type: organism-based; settings: in vivo
# Calf thymus DNA [9] = test: Binding affinity to calf thymus DNA assessed as guanine alkylated adduct formation at 10 mM after 5 days by LC-MS/MS analysis; assay type: nucleic-acid assay; settings: Bos taurus, time 5.0 day
# Calf thymus DNA [10] = test: Binding affinity to calf thymus DNA assessed as compound hydrolysis at 10 mM after 5 days by LC-MS/MS analysis; assay type: nucleic-acid assay; settings: Bos taurus, time 5.0 day
# [11] = biological target: T1, Epidermal growth factor receptor; test: Inhibition of EGFR phosphorylation in human A549 cells assessed as downregulation MAPK pathway at 1 to 10 uM preincubated for 2 hrs followed by EGF stimulation and measured after 30 mins by Western blot analysis; assay type: cell-based; settings: dose 1-10 µM, time 2.5 hrs
# [12] = biological target: T1, Epidermal growth factor receptor; test: Inhibition of EGFR phosphorylation in human PC-9 cells assessed as downregulation AKT pathway at 1 to 10 uM preincubated for 2 hrs followed by EGF stimulation and measured after 30 mins by Western blot analysis; assay type: cell-based; settings: dose 1-10 µM, time 2.5 hrs
# [13] = biological target: T1, Epidermal growth factor receptor; test: Inhibition of EGFR phosphorylation in human PC-9 cells assessed as downregulation MAPK pathway at 1 to 10 uM preincubated for 2 hrs followed by EGF stimulation and measured after 30 mins by Western blot analysis; assay type: cell-based; settings: dose 1-10 µM, time 2.5 hrs
# [14] = biological target: T1, Epidermal growth factor receptor; test: Inhibition of EGFR phosphorylation in human A549 cells assessed as downregulation AKT pathway at 1 to 10 uM preincubated for 2 hrs followed by EGF stimulation and measured after 30 mins by Western blot analysis; assay type: cell-based; settings: dose 1-10 µM, time 2.5 hrs
# [15] = biological target: T1, Epidermal growth factor receptor; test: Irreversible inhibition of EGFR in human A549 cells at 2 uM preincubated for 2 hrs followed by compound wash out with serum free media followed by EGF stimulation and measured after 30 mins by Western blot analysis; assay type: cell-based; settings: time 2.5 hrs
# [16] = biological target: T1, Epidermal growth factor receptor; test: Inhibition of EGFR phosphorylation in human NCI-H1975 cells assessed as downregulation MAPK pathway at 1 to 10 uM preincubated for 2 hrs followed by EGF stimulation and measured after 30 mins by Western blot analysis; assay type: cell-based; settings: dose 1-10 µM, time 2.5 hrs
# [17] = biological target: T1, Epidermal growth factor receptor; test: Inhibition of EGFR (unknown origin) using poly (Glu,Tyr) 4:1 as substrate incubated for 8 mins in presence of ATP by colorimetric analysis
# [18] = biological target: T1, Epidermal growth factor receptor; test: Inhibition of EGFR phosphorylation in human NCI-H1975 cells assessed as downregulation AKT pathway at 1 to 10 uM preincubated for 2 hrs followed by EGF stimulation and measured after 30 mins by Western blot analysis; assay type: cell-based; settings: dose 1-10 µM, time 2.5 hrs
# A549 [19] = test: Potency index, ratio of gefitinib IC50 to test compound IC50 for growth inhibition of human A549 cells; assay type: functional
# A549 [20] = test: Potency index, ratio of gefitinib IC50 in presence of chlorambucil to test compound IC50 for growth inhibition of human A549 cells; assay type: functional
# NCI-H1975 [21] = test: Potency index, ratio of gefitinib IC50 to test compound IC50 for growth inhibition of human NCI-H1975 cells; assay type: functional
# NCI-H1975 [22] = test: Potency index, ratio of gefitinib IC50 in presence of chlorambucil to test compound IC50 for growth inhibition of human NCI-H1975 cells; assay type: functional
# T1 sequence (P00533 whole entry): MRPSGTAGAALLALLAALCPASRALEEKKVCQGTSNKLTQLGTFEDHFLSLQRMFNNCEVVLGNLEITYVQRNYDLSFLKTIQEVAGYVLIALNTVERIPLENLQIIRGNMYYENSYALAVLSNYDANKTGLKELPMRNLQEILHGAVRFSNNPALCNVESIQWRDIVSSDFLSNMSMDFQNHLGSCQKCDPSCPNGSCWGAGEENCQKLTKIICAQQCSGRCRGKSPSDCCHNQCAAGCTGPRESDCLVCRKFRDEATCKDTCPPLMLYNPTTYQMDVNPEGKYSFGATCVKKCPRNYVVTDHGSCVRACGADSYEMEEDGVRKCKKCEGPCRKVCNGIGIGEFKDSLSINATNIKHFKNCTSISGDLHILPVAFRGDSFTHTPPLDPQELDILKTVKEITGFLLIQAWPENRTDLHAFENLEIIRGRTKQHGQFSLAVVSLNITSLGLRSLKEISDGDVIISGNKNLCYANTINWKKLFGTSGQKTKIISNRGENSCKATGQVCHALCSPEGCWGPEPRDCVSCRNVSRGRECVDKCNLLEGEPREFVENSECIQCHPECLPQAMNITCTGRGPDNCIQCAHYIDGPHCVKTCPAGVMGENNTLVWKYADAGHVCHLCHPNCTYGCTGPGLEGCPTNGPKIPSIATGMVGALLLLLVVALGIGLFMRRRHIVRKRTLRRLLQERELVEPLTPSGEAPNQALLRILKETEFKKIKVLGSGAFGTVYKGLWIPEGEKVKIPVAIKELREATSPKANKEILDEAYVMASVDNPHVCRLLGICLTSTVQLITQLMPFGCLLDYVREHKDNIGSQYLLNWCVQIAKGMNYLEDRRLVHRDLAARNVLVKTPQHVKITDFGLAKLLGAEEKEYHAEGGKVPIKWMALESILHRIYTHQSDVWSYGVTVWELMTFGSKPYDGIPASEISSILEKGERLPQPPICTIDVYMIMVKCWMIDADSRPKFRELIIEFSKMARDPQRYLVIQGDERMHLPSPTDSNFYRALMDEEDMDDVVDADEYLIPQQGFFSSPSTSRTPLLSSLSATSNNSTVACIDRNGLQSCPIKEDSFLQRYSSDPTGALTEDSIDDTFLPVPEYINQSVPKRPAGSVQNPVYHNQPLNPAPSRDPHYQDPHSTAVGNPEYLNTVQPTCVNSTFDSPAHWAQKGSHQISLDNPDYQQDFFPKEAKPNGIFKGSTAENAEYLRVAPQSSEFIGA
SMILES,Activity (A549 [2]),IC50 (NCI-H1975 [3]) [µM],IC50 (PC-9) [nM],IC50 (A549 [4]) [µM],inhibition [5],inhibition [6],Activity (Calf thymus DNA [7]),MTD [8] [mg/kg],Activity (Calf thymus DNA [9]),Activity (Calf thymus DNA [10]),inhibition [11],inhibition [12],inhibition [13],inhibition [14],inhibition [15],also measured
O=C(O)CCCc1ccc(N(CCCl)CCCl)cc1 [CHLORAMBUCIL],inactive,28.2,7170,24.5,inactive,inactive,,,,,,,,,,inhibition [1]: inactive
CC(=O)OCCN(CCOC(C)=O)c1ccc2ncnc(Nc3cccc(Br)c3)c2c1,,20.2,130,52.6,,,,,,,,,,,,
CC(=O)OCCN(CCO)c1ccc2ncnc(Nc3cccc(Br)c3)c2c1,,16,86,48,,,,,,,,,,,,
ClCCNc1ccc2ncnc(Nc3cccc(Br)c3)c2c1,Active,0.48,90,2.06,Active,Active,Active,150,Active,Active,Active,Active,Active,Active,Active,
ClCCN(CCCl)c1ccc2ncnc(Nc3cccc(Br)c3)c2c1,Active,6.07,203,6.51,Active,Active,Active,150,Active,Active,Active,Active,Active,Active,Active,inhibition [1]: Active; inhibition [16]: Active; IC50 [17]: 1260 nM; inhibition [18]: Active
CN(CCCl)c1ccc2ncnc(Nc3cccc(Br)c3)c2c1,Active,2.81,210,3.16,Active,Active,Active,150,Active,Active,Active,Active,Active,Active,inactive,Ratio IC50 (A549 [19]): 2; IC50 [17]: 504 nM; Ratio IC50 (A549 [20]): 2; Ratio IC50 (NCI-H1975 [21]): 2; Ratio IC50 (NCI-H1975 [22]): 2
CN(CCO)c1ccc2ncnc(Nc3cccc(Br)c3)c2c1,,11.3,103,34.5,,,,,,,,,,,,
COc1cc2ncnc(Nc3ccc(F)c(Cl)c3)c2cc1OCCCN1CCOCC1,inactive,,,,,,,,,,,,,,,
OCCN(CCO)c1ccc2ncnc(Nc3cccc(Br)c3)c2c1,,18.1,70,46.6,,,,,,,,,,,,
CC(=O)OCCN(C)c1ccc2ncnc(Nc3cccc(Br)c3)c2c1,,9.4,98,30.5,,,,,,,,,,,,
